Measurements from patent US20250197359A1, “CANNABINOID RECEPTOR MODULATING COMPOUNDS” (The U.S.A., as Represented by the Secretary, Department of …, priority 2022, published 2025).
Where two headings read alike, the source gives them in different places.

Columns and labels:
[1] = Caco-2 permeability (A-B and B-A); format: in vitro ADME; details: human
iNOS = iNOS (Mus musculus, UniProt P29477); test: Inducible NOS biochemical assay; details: for % Response (Inducible NOS): Mouse, 10 μM, criteria ≥ ±50%, preliminary data
Description: Biochemical assay results are presented as the percent inhibition of specific binding or activity (iNOS, CAMP, beta arrestin).

[2] = Metabolic stability in mouse liver microsomes; format: in vitro ADME
CB1 = CB1 (UniProt P21554); test: CB1 radioligand binding assay; parameters: species or system human; details: read-out: Ki (CB1)
How it was run: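 Radioligand binding to human CB1 stably expressed in CHO cells and to mouse brain membrane CB1 gave binding constants. For selected compounds, antagonism of CP55940-induced CB1 activation was measured in MPXNomad-CB1 HEK293 cells via cAMPNomad (cAMP) and ArresNomad (β-arrestin) fluorescent biosensors.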

[3] = Metabolic stability in human liver microsomes; format: in vitro ADME; details: human, liver microsomes
Brain/CB1 = target: T1, Brain/CB1 (Mus musculus, UniProt P47746); test: Functional GTPγS binding, Brain/CB1; format: biochemical
T1 construct: from tissue; host or cells: mouse brain membranes
T1 sequence (P47746 whole entry): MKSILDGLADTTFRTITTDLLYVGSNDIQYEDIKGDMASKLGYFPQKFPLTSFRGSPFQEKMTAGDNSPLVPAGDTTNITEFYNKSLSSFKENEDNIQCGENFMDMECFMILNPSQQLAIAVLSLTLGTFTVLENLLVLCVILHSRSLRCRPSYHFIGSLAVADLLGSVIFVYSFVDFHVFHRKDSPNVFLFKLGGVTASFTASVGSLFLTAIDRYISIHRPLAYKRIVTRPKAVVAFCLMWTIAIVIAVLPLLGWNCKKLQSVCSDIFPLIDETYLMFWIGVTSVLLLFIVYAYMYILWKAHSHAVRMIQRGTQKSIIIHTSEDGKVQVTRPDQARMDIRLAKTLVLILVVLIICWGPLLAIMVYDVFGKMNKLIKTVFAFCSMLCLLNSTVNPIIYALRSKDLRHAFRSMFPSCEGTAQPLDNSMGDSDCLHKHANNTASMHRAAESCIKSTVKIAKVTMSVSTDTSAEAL

Structure (SMILES) | iNOS inhibition % Response (iNOS) [%] | Ki (CB1) [nM] | IC50 (Brain/CB1) [nM] | % Response (Inducible NOS) (iNOS) [%] | also measured
N/C(=N\C(=N\S(=O)(=O)c1ccc(C(F)(F)F)cc1)N1CCC(c2ccccc2)C(c2ccc(Cl)cc2)=N1)c1ccc(F)cc1F (centres unmarked) [Compound 10p, (Z)—N—((Z)-amino (2,4-difluorophenyl)methylene)-3-(4-chlorophenyl)-4-phenyl-N′-((4-(trifluoromethyl)phenyl)sulfonyl)-5,6-dihydropyridazine-1 (4H)-carboximidamide] | 36 | 9.6 | 13 |  | Papp A→B ([1]; Caco-2, mean, read-out: Papp (AB), 10^−6 cm/s, Mean): 1.4 ×10⁻⁶ cm/s; Papp B→A ([1]; Caco-2, mean, read-out: Papp (BA), 10^−6 cm/s, Mean): 0.6 ×10⁻⁶ cm/s; Papp A→B ([1]; Caco-2, replicate 1, read-out: Papp (AB), 10^−6 cm/s, 1): 1.5 ×10⁻⁶ cm/s; Papp B→A ([1]; Caco-2, replicate 1, read-out: Papp (BA), 10^−6 cm/s, 1): 0.6 ×10⁻⁶ cm/s; Papp A→B ([1]; Caco-2, replicate 2, read-out: Papp (AB), 10^−6 cm/s, 2): 1.3 ×10⁻⁶ cm/s; Papp B→A ([1]; Caco-2, replicate 2, read-out: Papp (BA), 10^−6 cm/s, 2): 0.5 ×10⁻⁶ cm/s; efflux ratio ([1]; Caco-2, quotient of Papp(BA) to Papp(AB)): 0.4; t1/2, min [2]: 1.13 h; microsomal CLint ([2]; mouse, liver microsomes): 25 µL/min/mg; half-life ([2]; mouse, liver microsomes, read-out: t1/2, min): 1.3 h; microsomal CLint [3]: 6 µL/min/mg; half-life ([3]; read-out: t1/2, min): 4.8 h
N/C(=N/C(=N/S(=O)(=O)c1ccc(C(F)(F)F)cc1)N1CCC(c2ccccc2)C(c2ccc(Cl)cc2)=N1)c1ccccc1Cl (centres unmarked) [Compound 10s, (Z)—N—((E)-amino (2-chlorophenyl)methylene)-3-(4-chlorophenyl)-4-phenyl-N′-((4-(trifluoromethyl)phenyl)sulfonyl)-5,6-dihydropyridazine-1 (4H)-carboximidamide] | 24 | 20.5 | 19 |  | 
CS/C(N)=N\C(=N\S(=O)(=O)c1ccc(C(F)(F)F)cc1)N1CCC(c2ccccc2)C(c2ccc(Cl)cc2)=N1 (centres unmarked) [Compound 11b, methyl (Z)—N′—((Z)-(3-(4-chlorophenyl)-4-phenyl-5,6-dihydropyridazin-1 (4H)-yl)(((4-(trifluoromethyl)phenyl)sulfonyl)imino)methyl)carbamimidothioate] | 56 | 86.7 | 125 |  | 
CCS/C(N)=N\C(=N/S(=O)(=O)c1ccc(C(F)(F)F)cc1)N1CCC(c2ccccc2)C(c2ccc(Cl)cc2)=N1 (centres unmarked) [Compound 11i, ethyl (Z)—N′—((E)-(3-(4-chlorophenyl)-4-phenyl-5,6-dihydropyridazin-1 (4H)-yl)(((4-(trifluoromethyl)phenyl)sulfonyl)imino)methyl)carbamimidothioate] | 66 | 99.7 | 640 |  | 
C[Se]/C(N)=N\C(=N\S(=O)(=O)c1ccc(C(F)(F)F)cc1)N1CCC(c2ccccc2)C(c2ccc(Cl)cc2)=N1 (centres unmarked) [Compound 12b, methyl (Z)—N′—((Z)-(3-(4-chlorophenyl)-4-phenyl-5,6-dihydropyridazin-1 (4H)-yl)(((4-(trifluoromethyl)phenyl)sulfonyl)imino)methyl)carbamimidoselenoate] | 64 | 114 |  |  | 
O=S(=O)(/N=C(/N=C1\CCCCN1)N1CCC(c2ccccc2)C(c2ccc(Cl)cc2)=N1)c1ccc(C(F)(F)F)cc1 (centres unmarked) [Compound 16, (Z)-3-(4-chlorophenyl)-4-phenyl-N—((E)-piperidin-2-ylidene)-N′-((4-(trifluoromethyl)phenyl)sulfonyl)-5,6-dihydropyridazine-1 (4H)-carboximidamide] | 51 | 26 | 104 |  | 
C/C(N)=N\C(=N\S(=O)(=O)c1ccc(C(F)(F)F)cc1)N1CCC(c2ccccc2)C(c2ccc(Cl)cc2)=N1 (centres unmarked) [drawing 16] |  |  |  | 64 | 
CS/C(N)=N\C(=N\S(=O)(=O)c1ccc(C(F)(F)F)cc1)N1CCC(c2ccccc2)C(c2ccc(Cl)cc2)=N1 (centres unmarked) [drawing 17] |  |  |  | 56 | 
C[Se]/C(N)=N\C(=N\S(=O)(=O)c1ccc(C(F)(F)F)cc1)N1CCC(c2ccccc2)C(c2ccc(Cl)cc2)=N1 (centres unmarked) [drawing 18] |  |  |  | 64 | 
